Results as given in ChEMBL document CHEMBL1909046, “DrugMatrix in vitro pharmacology data”.

Tests used:
[1] = DRUGMATRIX: Serotonin (5-Hydroxytryptamine) 5-HT3 radioligand binding (ligand: [3H] GR-65630); assay type: cell membranes, Membrane; conditions: hek293; Not Active = under 50% inhibition at 10 µM
Thromboxane-A synthase = molecular target: T1, Thromboxane-A synthase (Homo sapiens, UniProt P24557); assay: biochemical; assay type: tissue-based, Platelet; conditions: platelet;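 also: enzyme inhibition assay with PGH2 supplied as substrate; in other assays of this panel Not Active means under 50% inhibition at 10 µM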
T1 sequence (P24557 whole entry): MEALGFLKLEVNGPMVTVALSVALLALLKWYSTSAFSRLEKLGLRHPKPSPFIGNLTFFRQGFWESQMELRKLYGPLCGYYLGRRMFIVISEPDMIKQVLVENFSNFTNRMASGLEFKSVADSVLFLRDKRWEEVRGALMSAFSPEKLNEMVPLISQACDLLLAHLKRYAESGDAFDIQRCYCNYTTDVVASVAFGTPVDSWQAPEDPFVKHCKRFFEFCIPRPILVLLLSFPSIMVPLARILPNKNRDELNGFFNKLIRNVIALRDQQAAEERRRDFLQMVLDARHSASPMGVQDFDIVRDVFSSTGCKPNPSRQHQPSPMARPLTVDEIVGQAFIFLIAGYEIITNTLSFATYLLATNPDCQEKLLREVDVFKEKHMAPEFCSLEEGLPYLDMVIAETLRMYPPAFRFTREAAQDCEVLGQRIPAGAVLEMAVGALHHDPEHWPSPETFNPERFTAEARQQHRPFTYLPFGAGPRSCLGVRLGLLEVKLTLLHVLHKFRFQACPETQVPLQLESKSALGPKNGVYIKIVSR

Cannabinoid receptor 1 = Cannabinoid receptor 1 (Homo sapiens, UniProt P21554); assay type: cell membranes, Chem-1, Membrane; conditions: chem-1; also: in other assays of this panel Not Active means under 50% inhibition at 10 µM
Chain of Cannabinoid receptor 1 (P21554 whole entry): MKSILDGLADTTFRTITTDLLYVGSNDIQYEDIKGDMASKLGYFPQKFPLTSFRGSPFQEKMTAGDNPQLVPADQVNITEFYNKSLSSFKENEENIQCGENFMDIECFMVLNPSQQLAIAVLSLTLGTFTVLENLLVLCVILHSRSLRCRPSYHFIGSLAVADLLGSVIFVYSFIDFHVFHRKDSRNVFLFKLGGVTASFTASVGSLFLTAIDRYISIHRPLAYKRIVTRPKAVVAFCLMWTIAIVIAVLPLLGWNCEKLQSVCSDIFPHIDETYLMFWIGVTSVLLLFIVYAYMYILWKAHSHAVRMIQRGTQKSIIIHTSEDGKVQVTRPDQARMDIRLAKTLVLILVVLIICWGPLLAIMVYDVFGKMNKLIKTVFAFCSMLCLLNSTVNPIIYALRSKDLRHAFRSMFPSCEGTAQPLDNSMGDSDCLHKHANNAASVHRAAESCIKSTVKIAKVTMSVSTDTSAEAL

[2] = DRUGMATRIX: Leukotriene, BLT (LTB4) radioligand binding (ligand: [3H]LTB4); assay type: cell membranes, Membrane; conditions: u-937; Not Active = under 50% inhibition at 10 µM
Nitric oxide synthase 1 = Nitric oxide synthase 1 (Rattus norvegicus, UniProt P29476); assay type: tissue-based, Cerebellum; also: in other assays of this panel Not Active means under 50% inhibition at 10 µM
Chain of Nitric oxide synthase 1 (P29476 whole entry): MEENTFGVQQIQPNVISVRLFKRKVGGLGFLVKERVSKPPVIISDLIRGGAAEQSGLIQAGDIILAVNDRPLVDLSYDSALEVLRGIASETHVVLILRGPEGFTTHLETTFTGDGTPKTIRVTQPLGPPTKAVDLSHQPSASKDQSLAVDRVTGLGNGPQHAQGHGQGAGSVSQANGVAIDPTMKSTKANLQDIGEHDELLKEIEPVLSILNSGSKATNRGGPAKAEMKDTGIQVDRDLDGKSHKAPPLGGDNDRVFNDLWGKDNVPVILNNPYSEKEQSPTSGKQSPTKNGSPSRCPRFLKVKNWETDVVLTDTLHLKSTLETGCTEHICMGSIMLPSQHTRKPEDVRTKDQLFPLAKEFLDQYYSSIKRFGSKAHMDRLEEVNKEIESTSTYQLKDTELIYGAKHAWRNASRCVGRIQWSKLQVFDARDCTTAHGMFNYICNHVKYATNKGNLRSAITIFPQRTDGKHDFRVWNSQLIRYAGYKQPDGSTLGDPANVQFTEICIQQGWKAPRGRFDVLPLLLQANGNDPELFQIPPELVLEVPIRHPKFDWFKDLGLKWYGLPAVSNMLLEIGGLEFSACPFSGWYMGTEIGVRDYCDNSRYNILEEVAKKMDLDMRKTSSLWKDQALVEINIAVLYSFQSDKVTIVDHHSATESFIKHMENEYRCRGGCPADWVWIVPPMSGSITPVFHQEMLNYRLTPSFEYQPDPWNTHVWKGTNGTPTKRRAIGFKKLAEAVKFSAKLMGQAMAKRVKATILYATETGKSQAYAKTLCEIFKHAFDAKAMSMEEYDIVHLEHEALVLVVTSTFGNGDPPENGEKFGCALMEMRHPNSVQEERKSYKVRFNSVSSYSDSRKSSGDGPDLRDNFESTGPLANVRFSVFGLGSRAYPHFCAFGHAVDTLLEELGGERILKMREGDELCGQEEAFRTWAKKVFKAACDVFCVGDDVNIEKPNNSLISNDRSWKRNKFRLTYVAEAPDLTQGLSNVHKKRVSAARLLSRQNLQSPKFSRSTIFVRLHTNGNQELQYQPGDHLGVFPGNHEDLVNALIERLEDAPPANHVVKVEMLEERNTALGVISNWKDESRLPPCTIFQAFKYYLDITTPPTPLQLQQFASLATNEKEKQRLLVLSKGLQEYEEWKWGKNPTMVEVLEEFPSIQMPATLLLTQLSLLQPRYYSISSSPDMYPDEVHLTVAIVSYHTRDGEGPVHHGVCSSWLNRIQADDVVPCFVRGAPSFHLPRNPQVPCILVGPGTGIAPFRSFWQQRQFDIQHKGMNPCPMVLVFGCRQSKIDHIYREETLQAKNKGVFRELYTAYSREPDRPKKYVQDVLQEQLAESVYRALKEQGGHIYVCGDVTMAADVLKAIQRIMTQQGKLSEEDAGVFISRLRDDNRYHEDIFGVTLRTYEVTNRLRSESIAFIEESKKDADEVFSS

Cathepsin G = molecular target: T2, Cathepsin G (Homo sapiens, UniProt P08311); assay type: tissue-based; conditions: neutrophil;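 also: inhibition of Cathepsin G enzyme activity, tested on an AMC-conjugated peptide substrate; in other assays of this panel Not Active means under 50% inhibition at 10 µM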
T2 sequence (P08311 whole entry): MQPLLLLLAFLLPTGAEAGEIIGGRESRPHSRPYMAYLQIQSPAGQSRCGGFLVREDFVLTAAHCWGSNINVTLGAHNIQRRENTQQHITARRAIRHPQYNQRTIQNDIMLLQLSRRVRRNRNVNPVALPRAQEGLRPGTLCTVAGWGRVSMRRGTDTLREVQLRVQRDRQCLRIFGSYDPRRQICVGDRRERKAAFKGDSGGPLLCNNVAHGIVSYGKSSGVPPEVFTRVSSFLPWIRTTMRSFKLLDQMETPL

Cytochrome P450 2C9 = Cytochrome P450 2C9 (Homo sapiens, UniProt P11712); conditions: bti-tn-5b1-4; also: in other assays of this panel Not Active means under 50% inhibition at 10 µM
Chain of Cytochrome P450 2C9 (P11712 whole entry): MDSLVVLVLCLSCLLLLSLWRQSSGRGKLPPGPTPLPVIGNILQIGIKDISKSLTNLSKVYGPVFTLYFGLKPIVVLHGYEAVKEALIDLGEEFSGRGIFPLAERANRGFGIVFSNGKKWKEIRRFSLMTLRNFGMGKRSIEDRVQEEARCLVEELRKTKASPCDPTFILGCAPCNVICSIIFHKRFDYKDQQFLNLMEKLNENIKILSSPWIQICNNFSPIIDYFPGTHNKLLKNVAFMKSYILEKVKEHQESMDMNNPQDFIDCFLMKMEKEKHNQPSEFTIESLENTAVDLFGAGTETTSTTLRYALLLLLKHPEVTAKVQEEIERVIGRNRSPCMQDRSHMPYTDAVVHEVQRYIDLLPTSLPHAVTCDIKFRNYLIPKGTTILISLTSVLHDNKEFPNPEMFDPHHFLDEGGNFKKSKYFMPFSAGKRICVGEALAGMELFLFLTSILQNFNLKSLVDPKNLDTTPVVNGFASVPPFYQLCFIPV

[3] = molecular target: Voltage-gated inwardly rectifying potassium channel KCNH2 (Homo sapiens, UniProt Q12809); conditions: hek293; also: in other assays of this panel Not Active means under 50% inhibition at 10 µM
Chain of Voltage-gated inwardly rectifying potassium channel KCNH2 (Q12809 whole entry): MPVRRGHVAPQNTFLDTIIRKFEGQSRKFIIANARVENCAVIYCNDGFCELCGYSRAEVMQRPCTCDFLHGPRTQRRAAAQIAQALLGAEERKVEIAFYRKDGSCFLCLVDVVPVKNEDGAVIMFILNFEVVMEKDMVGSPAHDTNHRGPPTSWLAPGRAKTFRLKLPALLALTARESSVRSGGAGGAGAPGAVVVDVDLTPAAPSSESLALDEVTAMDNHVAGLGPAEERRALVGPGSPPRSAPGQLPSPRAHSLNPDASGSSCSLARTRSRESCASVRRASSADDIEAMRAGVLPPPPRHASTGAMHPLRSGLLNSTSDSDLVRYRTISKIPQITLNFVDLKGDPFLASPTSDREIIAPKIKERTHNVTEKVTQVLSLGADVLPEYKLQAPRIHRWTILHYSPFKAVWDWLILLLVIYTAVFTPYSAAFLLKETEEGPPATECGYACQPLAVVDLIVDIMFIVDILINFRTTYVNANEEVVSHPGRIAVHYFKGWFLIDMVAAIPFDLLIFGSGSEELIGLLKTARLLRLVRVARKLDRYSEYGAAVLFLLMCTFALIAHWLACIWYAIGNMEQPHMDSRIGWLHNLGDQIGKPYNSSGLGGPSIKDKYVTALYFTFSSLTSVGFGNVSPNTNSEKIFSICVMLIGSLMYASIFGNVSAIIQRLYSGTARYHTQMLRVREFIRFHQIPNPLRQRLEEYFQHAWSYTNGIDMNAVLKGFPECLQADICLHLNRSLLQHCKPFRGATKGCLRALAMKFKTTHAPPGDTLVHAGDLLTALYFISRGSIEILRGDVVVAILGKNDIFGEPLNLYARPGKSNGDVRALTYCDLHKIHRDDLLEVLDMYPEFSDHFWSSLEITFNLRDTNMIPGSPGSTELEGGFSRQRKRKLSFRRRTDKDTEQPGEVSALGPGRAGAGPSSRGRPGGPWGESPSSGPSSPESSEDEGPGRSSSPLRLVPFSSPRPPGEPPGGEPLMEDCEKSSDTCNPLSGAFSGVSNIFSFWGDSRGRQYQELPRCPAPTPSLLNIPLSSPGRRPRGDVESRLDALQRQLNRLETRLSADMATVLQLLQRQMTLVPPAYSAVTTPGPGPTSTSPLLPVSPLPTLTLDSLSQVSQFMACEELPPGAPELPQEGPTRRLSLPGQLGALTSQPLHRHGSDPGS

COc1ccc(C(=O)N2CCCC2=O)cc1
Not Active: IC50 [1] | Ki [1] | IC50 (Thromboxane-A synthase) | IC50 (Cannabinoid receptor 1) | IC50 [2] | Ki [2] | IC50 (Nitric oxide synthase 1) | IC50 (Cathepsin G) | IC50 (Cytochrome P450 2C9) | Ki (Cytochrome P450 2C9) | IC50 [3] | Ki [3]

NCCCC(O)(P(=O)(O)O)P(=O)(O)O [ALENDRONIC ACID]
Not Active: IC50 [1] | Ki [1] | IC50 (Thromboxane-A synthase) | IC50 (Cannabinoid receptor 1) | IC50 [2] | Ki [2] | IC50 (Nitric oxide synthase 1) | IC50 (Cathepsin G)

Cn1c(=O)c2[nH]cnc2n(C)c1=O.Cn1c(=O)c2[nH]cnc2n(C)c1=O.NCCN [AMINOPHYLLINE]
Not Active: IC50 [1] | Ki [1] | IC50 (Thromboxane-A synthase) | IC50 (Cannabinoid receptor 1) | IC50 [2] | Ki [2] | IC50 (Nitric oxide synthase 1) | IC50 (Cathepsin G) | IC50 [3] | Ki [3]

CCC1(CCC(C)C)C(=O)NC(=O)NC1=O [AMOBARBITAL]
Not Active: IC50 [1] | Ki [1] | IC50 (Thromboxane-A synthase) | IC50 (Cannabinoid receptor 1) | IC50 [2] | Ki [2] | IC50 (Nitric oxide synthase 1) | IC50 (Cathepsin G) | IC50 (Cytochrome P450 2C9) | Ki (Cytochrome P450 2C9) | IC50 [3] | Ki [3]

CC1(C)S[C@@H]2[C@H](NC(=O)[C@H](N)c3ccccc3)C(=O)N2[C@H]1C(=O)O [AMPICILLIN]
Not Active: IC50 [1] | Ki [1] | IC50 (Thromboxane-A synthase) | IC50 (Cannabinoid receptor 1) | IC50 [2] | Ki [2] | IC50 (Nitric oxide synthase 1) | IC50 (Cathepsin G)

O=C1O[C@H]([C@@H](O)CO)C(O)=C1O [ASCORBIC ACID]
Not Active: IC50 [1] | Ki [1] | IC50 (Thromboxane-A synthase) | IC50 (Cannabinoid receptor 1) | IC50 [2] | Ki [2] | IC50 (Nitric oxide synthase 1) | IC50 (Cathepsin G) | IC50 (Cytochrome P450 2C9) | Ki (Cytochrome P450 2C9) | IC50 [3] | Ki [3]

CN1[C@@H]2CC[C@H]1C[C@@H](OC(=O)C(CO)c1ccccc1)C2 (stereo not given in full) [ATROPINE]
Not Active: IC50 [1] | Ki [1] | IC50 (Thromboxane-A synthase) | IC50 (Cannabinoid receptor 1) | IC50 [2] | Ki [2] | IC50 (Nitric oxide synthase 1) | IC50 (Cathepsin G)

Brc1c(NC2=NCCN2)ccc2nccnc12 [BRIMONIDINE]
Not Active: IC50 [1] | Ki [1] | IC50 (Thromboxane-A synthase) | IC50 (Cannabinoid receptor 1) | IC50 [2] | Ki [2] | IC50 (Nitric oxide synthase 1) | IC50 (Cathepsin G) | IC50 (Cytochrome P450 2C9) | Ki (Cytochrome P450 2C9) | IC50 [3] | Ki [3]

CN(C)[C@@H]1C(O)=C(C(N)=O)C(=O)[C@@]2(O)C(O)=C3C(=O)c4c(O)ccc(Cl)c4[C@@](C)(O)[C@H]3C[C@@H]12 [CHLORTETRACYCLINE]
Not Active: IC50 [1] | Ki [1] | IC50 (Thromboxane-A synthase) | IC50 (Cannabinoid receptor 1) | IC50 [2] | Ki [2] | IC50 (Nitric oxide synthase 1) | IC50 (Cathepsin G) | IC50 (Cytochrome P450 2C9) | Ki (Cytochrome P450 2C9) | IC50 [3] | Ki [3]

C[C@@H]1C[C@H]2[C@@H]3CCC4=CC(=O)C=C[C@]4(C)[C@@]3(F)[C@@H](O)C[C@]2(C)[C@H]1C(=O)CO [DESOXIMETASONE]
Not Active: IC50 [1] | Ki [1] | IC50 (Thromboxane-A synthase) | IC50 (Cannabinoid receptor 1) | IC50 [2] | Ki [2] | IC50 (Nitric oxide synthase 1) | IC50 (Cathepsin G) | IC50 (Cytochrome P450 2C9) | Ki (Cytochrome P450 2C9) | IC50 [3] | Ki [3]

C[C@@H]1C[C@H]2[C@@H]3CCC4=CC(=O)C=C[C@]4(C)[C@@]3(F)[C@@H](O)C[C@]2(C)[C@@]1(O)C(=O)CO [DEXAMETHASONE]
Not Active: IC50 [1] | Ki [1] | IC50 (Thromboxane-A synthase) | IC50 (Cannabinoid receptor 1) | IC50 [2] | Ki [2] | IC50 (Nitric oxide synthase 1) | IC50 (Cathepsin G) | IC50 [3] | Ki [3]

CN(C)CC[C@@H](c1ccc(Cl)cc1)c1ccccn1 [DEXCHLORPHENIRAMINE]
Not Active: IC50 [1] | Ki [1] | IC50 (Thromboxane-A synthase) | IC50 (Cannabinoid receptor 1) | IC50 [2] | Ki [2] | IC50 (Nitric oxide synthase 1) | IC50 (Cathepsin G) | IC50 (Cytochrome P450 2C9) | Ki (Cytochrome P450 2C9) | IC50 [3] | Ki [3]

C[C@H]1O[C@@H](n2cc(F)c(=O)[nH]c2=O)[C@H](O)[C@@H]1O [DOXIFLURIDINE]
Not Active: IC50 [1] | Ki [1] | IC50 (Thromboxane-A synthase) | IC50 (Cannabinoid receptor 1) | IC50 [2] | Ki [2] | IC50 (Nitric oxide synthase 1) | IC50 (Cathepsin G) | IC50 (Cytochrome P450 2C9) | Ki (Cytochrome P450 2C9) | IC50 [3] | Ki [3]

CC[C@H]1CN2CCc3cc(OC)c(OC)cc3[C@@H]2C[C@@H]1C[C@H]1NCCc2cc(OC)c(OC)cc21 [EMETINE]
Not Active: IC50 [1] | Ki [1] | IC50 (Thromboxane-A synthase) | IC50 (Cannabinoid receptor 1) | IC50 [2] | Ki [2] | IC50 (Nitric oxide synthase 1) | IC50 (Cathepsin G) | IC50 (Cytochrome P450 2C9) | Ki (Cytochrome P450 2C9)

C[C@@H](CO)NC(=O)[C@@H]1C=C2c3cccc4[nH]cc(c34)C[C@H]2N(C)C1 [ERGONOVINE]
Not Active: IC50 [1] | Ki [1] | IC50 (Thromboxane-A synthase) | IC50 (Cannabinoid receptor 1) | IC50 [2] | Ki [2] | IC50 (Nitric oxide synthase 1) | IC50 (Cathepsin G) | IC50 (Cytochrome P450 2C9) | Ki (Cytochrome P450 2C9) | IC50 [3] | Ki [3]

COc1cc([C@@H]2c3cc4c(cc3[C@@H](O[C@@H]3O[C@@H]5CO[C@@H](C)O[C@H]5[C@H](O)[C@H]3O)[C@H]3COC(=O)[C@H]23)OCO4)cc(OC)c1O [ETOPOSIDE]
Not Active: IC50 [1] | Ki [1] | IC50 (Thromboxane-A synthase) | IC50 (Cannabinoid receptor 1) | IC50 [2] | Ki [2] | IC50 (Nitric oxide synthase 1) | IC50 (Cathepsin G) | IC50 [3] | Ki [3]

CC(C)=CCC/C(C)=C/CO [GERANIOL]
Not Active: IC50 [1] | Ki [1] | IC50 (Thromboxane-A synthase) | IC50 (Cannabinoid receptor 1) | IC50 [2] | Ki [2] | IC50 (Nitric oxide synthase 1) | IC50 (Cathepsin G) | IC50 [3] | Ki [3]

CC(=O)[C@@]1(O)CC[C@H]2[C@@H]3CCC4=CC(=O)CC[C@]4(C)[C@H]3CC[C@@]21C [HYDROXYPROGESTERONE]
Not Active: IC50 [1] | Ki [1] | IC50 (Thromboxane-A synthase) | IC50 (Cannabinoid receptor 1) | IC50 [2] | Ki [2] | IC50 (Nitric oxide synthase 1) | IC50 (Cathepsin G) | IC50 [3] | Ki [3]

O=C(N/N=C/c1ccc([N+](=O)[O-])o1)c1cc([N+](=O)[O-])cc([N+](=O)[O-])c1O [NIFURSOL]
Not Active: IC50 [1] | Ki [1] | IC50 (Thromboxane-A synthase) | IC50 (Cannabinoid receptor 1) | IC50 [2] | Ki [2] | IC50 (Nitric oxide synthase 1) | IC50 (Cathepsin G) | IC50 [3] | Ki [3]

CC(C)NCC(O)COc1cccc2[nH]ccc12 (stereo not given) [PINDOLOL]
Not Active: IC50 [1] | Ki [1] | IC50 (Thromboxane-A synthase) | IC50 (Cannabinoid receptor 1) | IC50 [2] | Ki [2] | IC50 (Nitric oxide synthase 1) | IC50 (Cathepsin G) | IC50 [3] | Ki [3]

CCCNCC(O)COc1ccccc1C(=O)CCc1ccccc1 (stereo not given) [PROPAFENONE]
Not Active: IC50 [1] | Ki [1] | IC50 (Thromboxane-A synthase) | IC50 (Cannabinoid receptor 1) | IC50 [2] | Ki [2] | IC50 (Nitric oxide synthase 1) | IC50 (Cathepsin G)

C[C@@H]1O[C@@H](O[C@@H]2C=C3CC[C@@H]4[C@H](CC[C@]5(C)[C@@H](c6ccc(=O)oc6)CC[C@]45O)[C@@]3(C)CC2)[C@H](O)[C@H](O)[C@H]1O [PROSCILLARIDIN]
Not Active: IC50 [1] | Ki [1] | IC50 (Thromboxane-A synthase) | IC50 (Cannabinoid receptor 1) | IC50 [2] | Ki [2] | IC50 (Nitric oxide synthase 1) | IC50 (Cathepsin G) | IC50 [3] | Ki [3]
